Measurements as given in US5498780A, “Platinum complex and malignant tumor treating drug containing the same” (SS Pharmaceutical Co., Ltd., priority 1994, dated 1996).

Columns and labels:
[1] = tested on: murine P388 leukemia cell; test: Antitumor effect on murine P388 leukemia cell; format: in vivo, murine; male CDF1 mice; conditions: Table 9 test lot; for ILSmax (maximum percent increase in life-span) / ILS50 (dose which shows 50% of the ILS value by 5 administrations) / dose corresponding to ILSmax: P388, i.p. once a day for 5 days; for ILSmax (maximum percent increase in life-span): 30 days observation; for ILS50 (dose which shows 50% of the ILS value by 5 administrations): linear regression; for TI (therapeutic index, LD50 value/ILS50 value): P388
Protocol: (§1) Murine L1210 leukemia cells (1×10^5 cells) were inoculated peritoneally into six-week-old male CDF1 mice on day 0. From the next day after the inoculation, a drug (the compound of the invention or a compound for comparison) was administered peritoneally once a day for 5 days. After 30 days of observation, the percent increase in life-span (ILS) was calculated as follows: […]
(§2) T: mean survival days of the drug-treated group
(§3) C: mean survival days of control group
(§4) In these tables, ILSmax means maximum ILS value (%), and corresponding dose (mg/kg) is Shown in parenthesis.
Antitumor effect on murine P388 leukemia cell:
The test of Test Example 1 was repeated except that 1×10^6 of murine P388 leukemia cells were used instead of 1×10^5 of murine L1210 leukemia cells.

[2] = tested on: murine L1210 leukemia cell; test: Antitumor effect on murine L1210 leukemia cell (increase in life-span of inoculated mice); format: in vivo, murine; male CDF1 mice; conditions: Table 5 test lot; for ILSmax (maximum percent increase in life-span) / ILS50 (dose which shows 50% of the ILS value by 5 administrations) / dose corresponding to ILSmax: L1210, i.p. once a day for 5 days; for ILSmax (maximum percent increase in life-span): 30 days observation; for ILS50 (dose which shows 50% of the ILS value by 5 administrations): linear regression; for TI (therapeutic index, LD50 value/ILS50 value): L1210
Protocol: as §1, §2, §3, §4

[3] = tested on: cisplatin-resistant murine L1210 leukemia cell (L1210/DDP); test: Antitumor effect on cisplatin-resistant murine L1210 leukemia cell (L1210/DDP); format: in vivo, murine; male CDF1 mice; conditions: Table 7 test lot; for ILSmax (maximum percent increase in life-span) / dose corresponding to ILSmax / ILS50 (dose which shows 50% of the ILS value by 5 administrations): i.p. once a day for 5 days; for ILSmax (maximum percent increase in life-span): 30 days observation; for ILS50 (dose which shows 50% of the ILS value by 5 administrations): linear regression
Protocol: as §1, §2, §3
In these tables, ILSmax means maximum ILS value (%), and corresponding dose (mg/kg) is Shown in parenthesis. In this test, cisplatin and carboplatin were respectively tested in each test lot for accurate comparison.
Antitumor effect on cisplatin-resistant murine L1210 leukemia cell (L1210/DDP):
The test of Test Example 1 was repeated except that cisplatin-resistant murine L1210 leukemia cell (L1210/DDP) was used instead of murine L1210 leukemia cell.

[4] = 50% lethal dose by single peritoneal administration, obtained at the time of the dose setting; format: in vivo, CDF1 mice
Text: as §4

Compound	ILSmax (maximum percent increase in life-span) [1] [%]	ILS50 (dose which shows 50% of the ILS value by 5 administrations) [1] [mg/kg]	dose corresponding to ILSmax [1] [mg/kg]	TI (therapeutic index, LD50 value/ILS50 value) [1]	ILSmax (maximum percent increase in life-span) [2] [%]	ILS50 (dose which shows 50% of the ILS value by 5 administrations) [2] [mg/kg]	dose corresponding to ILSmax [2] [mg/kg]	TI (therapeutic index, LD50 value/ILS50 value) [2]	TI (therapeutic index, LD50 value/ILS50 value) [3]	ILSmax (maximum percent increase in life-span) [3] [%]	dose corresponding to ILSmax [3] [mg/kg]	ILS50 (dose which shows 50% of the ILS value by 5 administrations) [3] [mg/kg]	LD50 (50% lethal dose) [4] [mg/kg]
CCCO[NH][Pt]([NH2])([Cl])[Cl] [Compound No. 8, cis-dichloroammine (O-propylhydroxylamine)platinum(II)]	101.9	< 0.5	2.0	> 22.0	> 131.3	0.8	4.0	13.8	> 22.0	> 175.5	1.0	< 0.5	11.0
N.NOC1CCCCC1.[Cl][Pt][Cl] [Compound No. 9, cis-dichloroammine (O-cyclohexylhydroxylamine)platinum(II)]	114.4	< 1.0	4.0	> 22.1	108.8	1.3	4.0	17.0	> 22.1	> 206.1	1.0	< 1.0	22.1
